Reference: ChEMBL document CHEMBL4715722, “Discovery and preliminary structure-activity relationship studies on tecomaquinone I and tectol as novel farnesyltransferase and plasmodial inhibitors” (Bioorg Med Chem, 2016)

Key:
[1] = Inhibition of Trypanosoma brucei FTase
[2] = Inhibition of partially purified human FTase using dan-syl-GCVLS peptide as substrate measured for 15 mins by fluorescence based assay
Plasmodium falciparum = experiment: Antiplasmodial activity against chloroquine-resistant Plasmodium falciparum FcB1 infected in erythrocyte incubated for 48 hrs by [3H]-hypoxanthine incorporation assay; assay type: functional, organism-based
[3] = Cytotoxicity against human tumor cell line; assay type: cell-based
[4] = Inhibition of bovine brain FTase using 3H-farnesyl diphosphate as substrate incubated for 30 mins by beta-plate counting method; set-up: species or system Bos taurus
[5] = Inhibition of recombinant human FTase

CC(C)=CCCc1ccc2c(c1)C(=O)c1ccccc1C2=O gave an IC50 ([1]; read-out: IC50) of 1.4 µM, an IC50 [2] of 1.5 µM and an IC50 (Plasmodium falciparum) of over 34 µM. The Activity [3] was “Non-Toxic”.
CC(C)=CCC/C(C)=C/CCC1(C)C=Cc2c(-c3c4c(c5ccccc5c3O)OC(C)(CC/C=C(\C)CCC=C(C)C)C=C4)c(O)c3ccccc3c2O1 (stereo unspecified) gave an IC50 ([1]; read-out: IC50) of 8.7 µM, an IC50 [2] of 1.8 µM and an IC50 (Plasmodium falciparum) of 7.05 µM. For the same molecule, the Activity [3] was “Non-Toxic”.
In the case of CC(=O)OC(CCCC12OC(C(=O)O)C(O)(C(=O)O)C(C(=O)O)(O1)[C@H](OC(=O)CC/C=C/C(C)CCCc1ccccc1)[C@H]2O)C(C)Cc1ccccc1 (stereo partly specified), the IC50 [4] is reported as 0.15 µM.
In the case of CC(C)=CCC/C(C)=C/CCc1ccc2c(c1)C(=O)c1ccccc1C2=O, the IC50 ([1]; read-out: IC50) is reported as 1.7 µM, the IC50 [2] is reported as 1.4 µM and the IC50 (Plasmodium falciparum) is reported as over 28 µM. For the same molecule, the Activity [3] was “Non-Toxic”.
For CC1(C)C=Cc2c(-c3c4c(c5ccccc5c3O)OC(C)(C)C=C4)c(O)c3ccccc3c2O1 [tectol], the IC50 ([1]; read-out: IC50) was 1.73 µM, the IC50 [2] was 2.09 µM and the IC50 (Plasmodium falciparum) was 3.44 µM. The Activity [3] was “Non-Toxic”.
With CC(C)=CCC/C(C)=C/CC/C(C)=C/C1Oc2c(c3c(c4ccccc24)OC(C)(CC/C=C(\C)CCC=C(C)C)C=C3)C2=C1C(=O)c1ccccc1C2=O (stereo unspecified) the IC50 [1] was “Not Active”, the IC50 [2] was 9.98 µM and the IC50 (Plasmodium falciparum) was over 14 µM. For the same molecule, the Activity [3] was “Non-Toxic”.
CCCCCCCC(=O)O[C@@H]1[C@@H](O)C2(CCCC(OC(C)=O)C(C)C/C=C/c3ccccc3)OC(C(=O)O)C(O)(C(=O)O)C1(C(=O)O)O2 (stereo partly specified) showed an IC50 [4] of 0.1 µM.
For CCCCCCCCCC(=O)O[C@@H]1[C@@H](O)C2(CCCC(OC(C)=O)C(C)C/C=C/c3ccccc3)OC(C(=O)O)C(O)(C(=O)O)C1(C(=O)O)O2 (stereo partly specified), the IC50 [4] was 0.1 µM.
CC(C)=CCCC1(C)C=Cc2c(-c3c4c(c5ccccc5c3O)OC(C)(CCC=C(C)C)C=C4)c(O)c3ccccc3c2O1 (stereo unspecified) showed an IC50 ([1]; read-out: IC50) of 6.1 µM, an IC50 [2] of 4.4 µM and an IC50 (Plasmodium falciparum) of 10.6 µM. The Activity [3] was “Non-Toxic”.
Work on CC(C)=CCC/C(C)=C/C1Oc2c(c3c(c4ccccc24)OC(C)(CCC=C(C)C)C=C3)C2=C1C(=O)c1ccccc1C2=O (stereo unspecified) yielded an IC50 ([1]; read-out: IC50) of 2.7 µM, an IC50 [2] of 1.1 µM and an IC50 (Plasmodium falciparum) of over 17 µM. The Activity [3] was “Non-Toxic”.
Molecule O=C(O)C/C(C(=O)O)=C(/CCCCCCCCCCCCCCCCOS(=O)(=O)O)C(=O)O has an IC50 [5] of 0.014 µM.
With CCC(CC(C)C(=O)O)C(=O)CC/C(C)=C/C(C)C/C(C)=C/C(C)C(O)C(C)CCC(CCCC/C=C/C(C)CCC(C)OC(=O)CC(CC(=O)O)C(=O)O)OC(=O)CC(CC(=O)O)C(=O)O (stereo unspecified) the IC50 [5] was 0.05 µM.
In the case of CC(C)=CCC/C(C)=C/CCC1(C)C=Cc2c3c(c4ccccc4c2O1)OC(C)(CC/C=C(\C)CCC=C(C)C)C=C3 (stereo unspecified), the IC50 ([1]; read-out: IC50) is reported as 2.6 µM, the IC50 [2] is reported as 1.7 µM and the IC50 (Plasmodium falciparum) is reported as over 18 µM. The Activity [3] was “Non-Toxic”.
CC(C)=CCCC1(C)C=Cc2c3c(c4ccccc4c2O1)OC(C)(CCC=C(C)C)C=C3 (stereo unspecified) showed an IC50 ([1]; read-out: IC50) of 7.9 µM, an IC50 [2] of 4.4 µM and an IC50 (Plasmodium falciparum) of over 23 µM. The Activity [3] was “Non-Toxic”.
CC(C)=CC1Oc2c(c3c(c4ccccc24)OC(C)(C)C=C3)C2=C1C(=O)c1ccccc1C2=O (stereo unspecified) [TECOMAQUINONE] showed an IC50 ([1]; read-out: IC50) of 0.112 µM, an IC50 [2] of 0.065 µM and an IC50 (Plasmodium falciparum) of over 22 µM. The Activity [3] was “Non-Toxic”.
CCC(CC(C)C(=O)O)C(=O)CC/C1=C/C(C)C/C(C)=C/C(C)C(O)C(C)CCC(CCCC/C=C/C(C)CCC(C)OC(=O)CC(CC(=O)O)C(=O)O)OC(=O)CC(C(=O)O)CC(=O)OC1 (stereo unspecified) [ACTINOPLANIC ACID A] showed an IC50 [5] of 0.23 µM.
